Data published in PMC8157322, “Gd(III)–Pt(IV) theranostic contrast agents for tandem MR imaging and chemotherapy” (Chemical Science, 2020).

Columns and labels:
Type in all cases: physicochemical
[1] = T1/T2 relaxivity measurements in PBS; details: 37 °C
Protocol: The T1 relaxivity (r1) and T2 relaxivity (r2) of 1, GP1, and GP2 were measured at both low (1.41 T) and high (7 T) magnetic field strength in phosphate-buffered saline (PBS) to quantify how well they behave as MR contrast agents. […] The relaxivity values for 1 are well within the range of what is expected for a small molecule Gd(III) complex.[34] […] At 7 T, there was little change in r1 for both agents, while both r2 values increased, as expected. […]
(§1) solution. These capillaries were imaged using a Bruker PharmaScan 7 T MR imaging spectrometer (Bruker BioSpin, Billerica, MA, USA). T1 relaxation times were measured using a rapid-acquisition rapid-echo (RARE-VTR) T1-map pulse sequence with static TE (10 ms) and […]
parameters were as follows: field of view (FOV) = 25 x 25 mm2, matrix size (MTX) = 256 x 256, number of axial slices = 5, slice thickness (SI) = 1.0 mm, and averages (NEX) = 4. T1 analysis was carried out using the image sequence analysis tool in Paravision 5.0 pl2 software (Bruker, Billerica, MA, USA) with monoexponential curve-fitting of image intensities of selected regions of interest (ROIs) for each axial slice. […]
Fig. S2 Graph of r1 of (A) GP1 measured at 1.41 T (B) GP1 measured at 7 T (C) GP2 measured at 1.41 T
(D) GP2 measured at 7 T (E) 1 measured at 1.41 T (F) 1 measured at 7 T. All measurements were taken in PBS at 37 °C (G) 1 measured at 1.41 T with 5 mM GSH (H) GP1 measured at 1.41 T with 5 mM GSH and (I) GP2 measured at 1.41 T with 5 mM GSH.
Table S1. r1 of GP1, GP2, and 1 in PBS with 5 mM glutathione at 37 °C
GP1 (5 mM GSH) GP2 (5 mM GSH) 1 (5 mM GSH)

[2] = Aqueous solubility (qualitative); details: aqueous solutions / solvents
[3] = Stability in aqueous media monitored by HPLC-MS
Protocol: To ensure both agents remain stable in aqueous media under various conditions, they were dissolved in PBS, two types of cell culture media (MEM and RPMI-1640), pH 5 H2O, and porcine live esterase (PLE) in PBS and monitored over time by HPLC-MS. […]
Stability of GP1 and GP2 in various aqueous media. Aliquots of GP1 and GP2 were prepared from a stock with known mass checked by ICP-MS. An aliquot of each was dissolved in H2O and analyzed by HPLC-MS using an Atlantis C18 column (4.6 × 250 mm, 5 μm) and the following method: MeCN held at 0% for 3 min followed by a 15 min ramp to 100% MeCN (GP1 retention time: 10.9 min, GP2 retention time: 11.6 min). Aliquots of both were additionally dissolved in PBS, MEM, RPMI-1640, pH 5 H2O, PBS with 10 units/mL porcine liver esterase, 5 mM glutathione, and 5 mM sodium ascorbate, incubated in a shaker at 37 °C, and were analyzed by HPLC-MS at different time points using the same method. At each time point, the area of the peak of GP1 or GP2 was determined by integration and compared to the area of the peaks in […]

[4] = Reduction by 5 mM GSH / 5 mM ascorbate at 37 °C (HPLC-MS)
Protocol: Under reducing conditions both agents rapidly converted to a monomeric Gd(III) complex and a Pt(II) drug. Each agent was incubated with 5 mM GSH and 5 mM ascorbate at 37 °C to mimic intracellular conditions. […] This is not surprising, as ascorbate is a weaker reducing agent. […]
as §1
Stability of GP1 and GP2 in various aqueous media. […] An aliquot of each was dissolved in H2O and analyzed by HPLC-MS using an Atlantis C18 column (4.6 × 250 mm, 5 μm) and the following method: MeCN held at 0% for 3 min followed by a 15 min ramp to 100% MeCN (GP1 retention time: 10.9 min, GP2 retention time: 11.6 min). Aliquots of both were additionally dissolved in PBS, MEM, RPMI-1640, pH 5 H2O, PBS with 10 units/mL porcine liver esterase, 5 mM glutathione, and 5 mM sodium ascorbate, incubated in a shaker at 37 °C, and were analyzed by HPLC-MS at different time points using the same method. At each time point, the area of the peak of GP1 or GP2 was determined by integration and compared to the area of the peaks in H2O. […]

r1 (T1 relaxivity) ([1]; 1.41 T): 7.0 mM⁻¹ s⁻¹ | r1 (T1 relaxivity) ([1]; 7 T): 7.1 mM⁻¹ s⁻¹ | Solubility [2]: readily soluble in aqueous solutions | Agent intact in MEM ([3]; MEM, 37 °C, at 48 hours): ≥ 92% | Stability in PBS ([3]; PBS, 37 °C, over 48 hours): completely stable | Agent reduced to Pt(II) in RPMI-1640 ([3]; RPMI-1640 (0.003 mM GSH), 37 °C, within 48 hours): 33% | Agent intact in RPMI-1640 ([3]; RPMI-1640, 37 °C, at 6 hours): ≥ 96% | Stability in pH 5 H2O ([3]; pH 5 H2O, 37 °C, over 48 hours): completely stable | Reduction by GSH ([4]; 5 mM GSH, in less than an hour): ≥ 94%
Compound: [NH2][Pt]([NH2])([OH])([Cl])([Cl])[O]C(=O)CCCCCN1CCN2CCN3CCN(CC1)CC(=O)[O][Gd]([O]C(=O)C2)[O]C(=O)C3 [GP1]
Reduction by ascorbate ([4]; 5 mM ascorbate, compared to GSH): reduced by ascorbate, albeit it at a much slower rate
